Consider 5 molecules from patent US20080249176A1, “Methods and Compositions for the Treatment of Myocardial Conditions” (priority 2004, published 2008).

Structures are written as SMILES.

One assay has as its system Na^+—K^+ pump. As to the kind of experiment: Whole-cell patch clamp measurement of Na+-K+ pump current (Ip) in isolated cardiac myocytes. It is filed as cell-based, rabbit. The text has this:
The whole-cell patch clamp technique (Hamill et al, 1981; Buhagier et al, 2004; Hansen et al, 2002) was used to examine the effect of β3 adrenoceptor stimulation on the Na^+—K^+ pump in isolated cardiac myocytes.
With the whole-cell patch clamp technique myocytes are suspended in a tissue bath mounted on the stage of an inverted microscope. A fine glass pipette is attached to the cell membrane and gentle suction applied to rupture the membrane patch directly under the tip of the glass pipette. This allows the intracellular compartment of the myocyte to be perfused with solution contained in the patch pipette. It also allows access of drugs and compounds to the intracellular compartment. Control of the composition of the extracellular solution in the tissue bath is achievable. The technique also allows control of membrane voltage and measurement of total membrane current.
The Na^+—K^+ pump's 3Na^+:2K^+ exchange ratio generates a current (Ip) that can be measured as the shift in holding current of the patch-clamped myocyte that is induced by pump blockade with 100 μM ouabain.
In the whole-cell configuration the bath was perfused with modified Tyrode's solution which contained (in mmol/L) NaCl 140; KCl 5.6; CaCl2 2.16; MgCl2 1; NaH2PO4 0.44; glucose 10 and Na-glutamate 9; N-2-hydroxyethyl piperazine-N′-2-[…] (HEPES) 10. The solution was titrated to a pH of 7.40±0.01 at 35° C. with NaOH.
For measurement of Ip the system was switched to a superfusate that usually was identical to the modified Tyrode's solution except that it was nominally Ca^2+-free and contained 0.2 mmol/L CdCl2 and 2 mmol/L BaCl2.
Wide-tipped patch pipettes (4-5 μm) were filled with solutions containing (in mmol/L) HEPES 5; MgATP 2; ethylene glycol-bis(β-aminoethyl ether)-N,N,N′,N′-tetraacetic acid (EGTA) 5; KCl 70 mmol/L. Osmotic balance was maintained with 80 mmol/L tetramethylammonium chloride (TMA-Cl). The solutions were titrated to a pH of 7.05±0.01 at 35° C. with 1 mmol/L TMA-OH. Ip was identified at a holding potential of −40 mV as the shift in holding current induced by Na^+—K^+ pump blockade with 100 μmol/L ouabain 10-15 minutes after the whole-cell configuration had been established. […] Details of patch pipette characteristics and equipment and criteria for defining Ip have been reported previously (Buhagiar et al, 1999).
The whole-cell patch clamp technique was similar to that described above except that extracellular Na^+ was eliminated (NaCl was replaced with N-methyl-D-glucamine (NMG.Cl)) to rule out any possible influx of Na^+ across the cell membrane.
On the technique in general: The patch-clamp technique gives a direct electrical read-out from membranes.

Assay [1] relates to model of ischaemic cardiomyopathy with severe heart failure induced by repeated coronary microembolisation in sheep. The assay is described as follows: Sheep heart failure model, left ventricular end systolic pressure-volume relationship (ESPVR). It is filed as in vivo. The conditions noted are these: intravenous infusion, increasing doses, mean of 3 sheep, FIG. 6. The procedure: To examine the effect of acute activation of the β3-receptor we used a model of ischaemic cardiomyopathy with severe heart failure induced by repeated coronary microembolisation in sheep (Huang, Y et al., Am J Physiol 286: H2141-50, 2004). The model is stable and reflects the human condition well (Huang et al, 2004).
BRL 37344 was administered by intravenous infusion over a period of 8 min, starting with the lowest dose of the protocol. After an additional 5 min pressure-volume relationships were determined as described (Huang et al., 2004). The procedure was then repeated in an identical fashion using a larger dose of BRL 37344. The left ventricular end systolic pressure-volume relationship (ESPVR) was used as an index of cardiac performance. ESPVR is relatively independent of confounding factors such as pre- and after-load and heart rate, and is widely accepted as a good index of left ventricular function.
Results are shown in FIG. 6, both before and after induction of heart failure. The independent variable on the abscissa indicates the dose in microgram BRL 37344 per kg weight of the sheep. Note the logarithmic increment in dose. The mean of ESPVR measured in 3 different sheep before and after induction of severe heart failure is shown on the ordinate. […]

Another assay has as its system PKA. Particulars: H-89 0.5 μM; cited from earlier work.

Consider `O=C(Nc1ncnc2c1ncn2[C@@H]1O[C@@H]2COP(=O)(O)OC2C1O)c1ccccc1` (stereo in doubt) [6-Bnz-cAMP], for which the “Effect on Ip” value in the assay on Na^+—K^+ pump (100 μM 6-Bnz-cAMP in patch pipette solution, NA-free control superfusate, FIG. 5) is reported as “significant decrease in Ip”.
In the case of `C[C@H](Cc1ccc(OCC(=O)O)cc1)NC[C@H](O)c1cccc(Cl)c1` [BRL 37344], the “BRL 37344-induced stimulation of the Na,K-pump in the absence of extracellular Na^+” value in the assay on Na^+—K^+ pump (10 nM BRL 37344, NaCl replaced by NMG.Cl, FIG. 3) is recorded as “persisted in the absence of extracellular Na^+”. In the assay with Na^+—K^+ pump (100 nM vs 10 nM BRL 37344, pipette Na 10 mM, FIG. 1), the “Na,K-pump activity at 100 nM in comparison with activity observed with 10 nM” value is listed as “apparent lower activity”. In addition, the “Na^+—K^+ pump current (Ip) in comparison with normal controls” value with Na^+—K^+ pump (BRL 37344 1 nM, 10 nM and 100 nM, pipette Na 10 mM, FIG. 1) was “significantly stimulates”. For the same molecule, the “Slope of linear regression of log dose vs. ESPVR” value in assay [1] (normal sheep (before induction of heart failure)) is “trend towards a negative slope”; in assay [1] (sheep after induction of severe heart failure), “significantly positive”.
For the molecule `Cl.Cl.O=S(=O)(NCCNCC=Cc1ccc(Br)cc1)c1cccc2cnccc12` [H-89, N-[2-(p-Bromocinnamylamino)ethyl]-5-isoquinolinesulfonamide dihydrochloride], the “Effect on PKA-mediated Na^+—K^+ pump inhibition” value in the assay with PKA was “abolishes PKA-mediated Na^+—K^+ pump inhibition”. For the same molecule, the “Effect on 6-Bnz-cAMP-induced decrease in Ip” value with Na^+—K^+ pump (H-89 0.5 μM + 6-Bnz-cAMP 100 μM in pipette solution, FIG. 5) is recorded as “reversed the 6-Bnz-cAMP-induced decrease in Ip”.
As to `NC[C@H](O)c1ccc(O)c(O)c1` [NA, noradrenaline], the “NA-induced increase in Ip with β1/β2 blockade” value in the assay with Na^+—K^+ pump (10 nM NA + 1 μM nadolol, FIG. 4) is “persisted in the presence of nadolol”. The “NA-induced increase in Ip with PKA blockade” value in the assay on Na^+—K^+ pump (10 nM NA, 0.5 μM H-89 in patch pipette solution, FIG. 4) is “persisted with PKA blockade”. Also, the “Effect on Ip” value with Na^+—K^+ pump (10 nM NA, FIG. 4) was “induced an increase in Ip”.
In the case of `CC(C)(C)NCC(O)COc1cccc2c1CC(O)C(O)C2` (stereo not drawn) [nadolol], in the assay on Na^+—K^+ pump (nadolol 1 μM + 100 nM BRL 37344 in superfusate, FIG. 2), the “Na,K-pump activity with nadolol in the presence of 100 nM BRL 37344 compared to 100 nM BRL 37344 alone” value was “increased, although not quite significantly”.
